In article PMC4183595, “Study on the Main Components Interaction from Flos Lonicerae and Fructus Forsythiae and Their Dissolution In Vitro and Intestinal Absorption in Rats” (PLoS ONE, 2014):
Where two headings read alike, the source gives them in different places.

Columns and labels:
[1] = Rat in vivo pharmacokinetics study after oral administration of product A, B or C; set-up: species or system Male Sprague-Dawley (SD) rats; AUC 0→t in product C group, increased to % compared to that in product A or B groups: concentration or dose not given beside the values; conditions: for AUC(0-t) / AUC(0-inf) / Tmax / half-life / Cmax / MRT: male, Sprague-Dawley, rat, plasma; for AUC(0-t) / AUC(0-inf) / Tmax / half-life / MRT: 10 mL·kg^−1; for AUC(0-t): oral product C group; for AUC(0-inf) / Tmax / half-life / Cmax / MRT: po, 10 mL·kg^−1, rats; for half-life: read-out: T 1/2z; for Cmax: mean±SD; for AUC 0→t in product C group, increased to % compared to that in product A or B groups: product C versus product A or B
Method: Product A (extract mixed with FLJ extract and water, (1∶1, v / v )), product B (extract mixed with FF extract and water, (1∶1, v / v )) and product C (extract mixed with FLJ and FF extracts, (1∶1, v / v )) were given to oral administration to rats, respectively.
Male SD rats (∼250 g) were kept in an environmentally controlled breeding room (temperature: 20±2°C, relative humidity: 60±5%) for 1 week. […] The rats were randomly divided into three groups with no less than six rats in each group to receive various administrations at a single oral dose (10 mL·kg^−1) by gastric gavage. […] Subsequently, plasma was prepared by centrifugation at 1,816×g, 4°C for 7 min, and immediately analyzed or stored at −70°C for further analysis.
The main pharmacokinetic parameters including the peak plasma concentration (C max), the time to C max (T max), the AUC from 0 to infinity (AUC 0–∞), the AUC form 0 to time (AUC 0–t), mean residence time (MRT), and terminal elimination half-life (T 1/2z) were calculated by the non-compartmental analysis of plasma concentration vs. time data using the “DAS 2.1.1” software (Mathematical Pharmacology Professional Committee of China, Shanghai, China).

Caco-2 cells = test: In vitro Caco-2 monolayer model, apical to basolateral transport (P app); assay type: in vitro ADME, human; conditions: Caco-2 monolayer, HBSS pH 6.0, apical to basolateral
Method: Caco-2 cells were cultured in high glucose DMEM with 10% fetal bovine serum, 1% nonessential amino acids. Cells were cultured in a humidified atmosphere of 5% CO2 at 37°C. After reaching 80% confluens, Caco-2 cells were harvested with 0.05% trypsin-EDTA solution and seeded on top of CC inserts in 6-well plates, which has a surface area of 4.2 cm^2, at a density of 1.0×10^5 cells/cm^2. The protocols for cell culture in Transwell inserts were similar to those described previously.
Hank’s balanced salt solution (HBSS) was used as the transport buffer for the transport study in Caco-2 cells monolayer model. It was prepared by dissolving 9.5 grams of commercial available HBSS powder in 1000 mL water.
Cell culture experiments were described previously. Briefly, after culture medium was aspirated, the cell monolayers were washed three times with blank HBSS. […] The monolayers were incubated with the blank HBSS for 1 h with 37°C. Thereafter the incubation medium was aspirated. Afterwards, a solution containing the compound was loaded onto the apical side. The amounts of transported compound were measured as a function of time. […] The samples were taken at 0, 1, 2, 3 and 4 h after incubation. At the end of the transport experiment, integrity of the monolayer was monitored by TEER value.

[2] = single oral dose 10 mL·kg^−1 of product A (FLJ extract and water 1:1)
[3] = single oral dose 10 mL·kg^−1 of product C (FLJ and FF extracts 1:1)
[4] = single oral dose 10 mL·kg^−1 of product B (FF extract and water 1:1)

Structure (SMILES)	AUC(0-t) ([1]; rats)	AUC(0-inf) ([1]; oral product A)	Tmax ([1]; oral product A)	half-life ([1]; oral product A)	AUC(0-inf) ([1]; oral product C)	Tmax ([1]; oral product C)	half-life ([1]; oral product C)	Cmax [1, 2]	Cmax [1, 3]	AUC 0→t in product C group, increased to % compared to that in product A or B groups ([1]; rats, oral)	P app in product C group, % compared to that in product A group (Caco-2 cells)	MRT ([1]; oral product A)	MRT ([1]; oral product C)	AUC(0-inf) ([1]; oral product B)	MRT ([1]; oral product B)	half-life ([1]; oral product B)	Cmax [1, 4]	bioavailability in product C group compared with that in product A group ([1]; rats, oral)	bioavailability in product C group compared with that in product B group ([1]; rats, oral)	P app in product C group, % compared with that in product B group (Caco-2 cells)	other results
O=c1c(-c2ccc(O)cc2)coc2cc(O[C@@H]3O[C@H](CO)[C@@H](O)[C@H](O)[C@H]3O)cc(O)c12 [Genistin]	0.548 ng·h/mL	0.63 ng·h/mL	0.267 h	8.03 ± 0.305 h	0.822 ng·h/mL	0.333 h	9.2 ± 0.455 h	0.055 ± 0.0154 ng/mL	0.0753 ± 0.0285 ng/mL	131%	165%	–	–	–	–	–	–	–	–	–	–
O=c1cc(-c2ccc(O)c(O)c2)oc2cc(O[C@@H]3O[C@H](CO)[C@@H](O)[C@H](O)[C@H]3O)cc(O)c12 [Luteoloside]	4.76 ng·h/mL	2.97 ng·h/mL	0.167 h	6.38 ± 0.22 h	5 ng·h/mL	0.167 h	9.65 ± 1.43 h	1.26 ± 0.655 ng/mL	2.48 ± 1.34 ng/mL	137%	174%	–	–	–	–	–	–	–	–	–	–
O=c1cc(-c2ccc(O)c(O)c2)oc2cc(O)cc(O)c12 [Luteolin]	–	88.3 ng·h/mL	0.167 h	7.05 ± 0.943 h	46.9 ng·h/mL	0.167 h	4.42 ± 0.262 h	44.9 ± 19.8 ng/mL	19.5 ± 5.43 ng/mL	–	240%	5.78 h	4.67 h	–	–	–	–	–	–	–	AUC 0→t in product C group compared with product A or B group ([1]; rats, oral, same dosages administrated): lower significantly
C[C@@H]1O[C@@H](OC[C@H]2O[C@@H](Oc3c(-c4ccc(O)c(O)c4)oc4cc(O)cc(O)c4c3=O)[C@H](O)[C@@H](O)[C@@H]2O)[C@H](O)[C@H](O)[C@H]1O [Rutin]	–	10.3 ng·h/mL	0.167 h	7.93 ± 0.837 h	22.8 ng·h/mL	0.167 h	7.55 ± 0.613 h	4.08 ± 1.99 ng/mL	19.8 ± 3.93 ng/mL	–	213%	5.02 h	4.88 h	30.5 ng·h/mL	4.35 h	8.17 ± 1.55 h	14.6 ± 1.65 ng/mL	significantly higher	no significant difference	210%	–
O=c1c(O[C@@H]2O[C@H](CO)[C@H](O)[C@H](O)[C@H]2O)c(-c2ccc(O)c(O)c2)oc2cc(O)cc(O)c12 [Hyperoside]	–	9.89 ng·h/mL	0.167 h	6.83 ± 1.63 h	24.6 ng·h/mL	0.167 h	7.05 ± 0.688 h	5.25 ± 0.859 ng/mL	22.1 ± 1.9 ng/mL	–	129%	7.27 h	6.45 h	10.4 ng·h/mL	6.82 h	6.68 ± 0.487 h	9.68 ± 4.39 ng/mL	significantly higher	significantly higher	195%	–
O=C(O)/C=C/c1ccc(O)c(O)c1 [Caffeic acid]	–	1190 ng·h/mL	0.167 h	6 ± 1.1 h	737 ng·h/mL	0.167 h	6.53 ± 1.02 h	181 ± 17.6 ng/mL	98.1 ± 16.2 ng/mL	–	275%	6.65 h	6.28 h	683 ng·h/mL	5.57 h	5.53 ± 0.893 h	91.1 ± 6.74 ng/mL	significantly lower	no significant difference	247%	Tmax ([1]; oral product B): 0.167 h
